The first test concerns the target T1, acetylcholine muscarinic M1 receptor (Homo sapiens, UniProt P11229).
T1 construct: expressed in transfected cells; host or cells: CHOnfat cells (CHO cells with an NFAT reporter) expressing hM1, kept under Geneticin selection
T1 sequence (P11229 1-460): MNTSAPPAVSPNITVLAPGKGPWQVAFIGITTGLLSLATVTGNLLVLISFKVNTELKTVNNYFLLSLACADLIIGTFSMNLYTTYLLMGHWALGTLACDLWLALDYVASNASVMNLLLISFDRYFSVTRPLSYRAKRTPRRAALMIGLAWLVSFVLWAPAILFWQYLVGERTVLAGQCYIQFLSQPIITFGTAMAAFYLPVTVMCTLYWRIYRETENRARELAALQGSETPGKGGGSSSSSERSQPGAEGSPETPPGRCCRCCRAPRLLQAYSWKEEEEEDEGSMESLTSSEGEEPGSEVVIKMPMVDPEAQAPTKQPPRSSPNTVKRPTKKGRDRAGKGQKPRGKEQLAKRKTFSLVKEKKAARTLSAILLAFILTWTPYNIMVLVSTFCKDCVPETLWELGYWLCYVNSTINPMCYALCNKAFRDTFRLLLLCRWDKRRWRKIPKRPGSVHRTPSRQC
Kind of test: muscarinic FLIPR assay: intracellular calcium in CHOnfat/hM1 cells, potentiation of EC20 acetylcholine. The class given is cell-based. Particulars: IP Value (nM), Table 3; inflection point calculated from the FLIPR values; EC20 acetylcholine (3 nM final). How it is done:
The assay studies the effect of one or several concentrations of test compounds on basal or acetylcholine-stimulated Ca^2+ levels using FLIPR.
Compounds are prepared and subjected to a preincubation period of […]. Thereafter, a single EC20 concentration of acetylcholine is added to each well (3 nM final). The intracellular Ca^2+ level of each sample is measured and compared to an acetylcholine control to determine any modulatory activity.
Cells: CHOnfat/hM1, hM2, hM3 or hM4 cells are plated 24 hr before the assay at a density of 18,000 cells/well (100 μL) in a 384 well plate. CHOnfat/hM1 and CHOnfat/hM3 Growth Medium: 90% DMEM (Hi Glucose); 10% HI FBS; 2 mM L-glutamine; 0.1 mM NEAA; Pen-Strep; and 1 mg/ml Geneticin, are added. For M2Gqi5CHOnfat and M4Gqi5CHOnfat cells, an additional 600 ug/ml hygromycin is added.
Equipment: 384 well plate, 120 μl, addition plate; 96-well Whatman 2 ml Uniplate Incubator, 37° C., 5% CO2; Skatron EMBLA-384 Plate Washer; Multimek Pipetting System; Genesis Freedom 200 System; Mosquito System; Temo Nanolitre Pipetting System; and FLIPR^384 Fluorometric Imaging Plate Reader System are used.
Buffers. Assay Buffer: Hanks Balanced Salt Solution, with 20 mM Hepes, 2.5 mM Probenecid (Sigma P-8761) first dissolved in 1 N NaOH, 1% Bovine Serum Albumin (Sigma A-9647). Dye Loading Buffer: Assay Buffer plus 1% Fetal Bovine Serum and Fluo-4AM/Pluronic Acid Mixture. 2 mM Fluo-4AM ester stock in DMSO (Molecular Probes F-14202) Concentration of 2 μM in buffer for a final concentration of 1 μM in Assay. 20% Pluronic Acid Solution stock, with concentration of 0.04% in Buffer, 0.02% in Assay.
65 μL of 2 mM Fluo-4AM are mixed with 130 μL of 20% Pluronic Acid. The resulting solution and 650 μL FBS is added to the assay buffer for a total volume of 65 mL. Positive Controls: 4-Br-A23187: 10 mM in DMSO; final concentration 10 μM. Acetylcholine: 10 mM in water, working stock at both 20 μM and 30 μM in assay buffer, final concentration of 10 μM. This is used to check the maximum stimulation of the CHOK1/hM1 cells. 20 μM (2×) acetylcholine is added in the preincubation part of the assay, and the 30 μM (3×) stock is added in the second part. (EC20)Acetylcholine: 10 mM in water, working stock of 9 nM (3×), and final concentration in assay is 3 nM. This is used after the preincubation with test compounds. Addition of the EC20 Acetylcholine to each well with a test compound will ascertain any modulator activity. 24 wells contain 3 nM Acetylcholine alone as a control.
Determining Activity of Putative Compounds:
Screening Plate Compounds are titrated in 96-well plates (columns 2-11), 100% DMSO, started at a concentration of 15 mM (150× stock concentration), and 3-fold serial dilutions using Genesis Freedom200 System. Four 96-well plates are combined into a 384-well plate using Mosquito Nanolitre Pipetting System by transferring 1 μl of serial diluted compounds to each well, and 1 mM acetylcholine (100× stock concentration) were added as a control. Using Temo, 49 μl assay buffer is added to each well of the 384-well plate right before assay.
In a 96-well Whatman 2 ml Uniplate, 9 nM Acetylcholine (3×) is pipetted into wells corresponding to the screening compounds, and into control wells. The 30 μM acetylcholine control (3×) is added into control wells, and the 3× agonist plate is transferred into a 384 well plate.
Cells are washed three times with 100 μL of buffer, leaving […] of buffer in each well. Using Multimek, 30 μL of Dye Loading Buffer is added into each well and incubated at 37° C., 5% CO2 for up to one hr.
After 60 min, the cells are washed three times with 100 μL of buffer, leaving 30 μL of buffer in each well. The cell plate, screening plate, and agonist addition plates are placed on the platform in the FLIPR and the door closed. A signal test to check background fluorescence and basal fluorescence signal is performed. Laser intensity is adjusted if necessary.
For `CN(C)C(=O)Oc1cccc(N2Cc3c(cc(CN4CCC(F)(F)CC4)c4cccnc34)C2=O)c1` [Example 10, 3-{5-[(4,4-Difluoropiperidin-1-yl)methyl]-7-oxo-7,9-dihydro-8H-pyrrolo[3,4-h]quinolin-8-yl}phenyl dimethylcarbamate], the EC50 is 2260 nM.

The test is the same for the next values; noted with them: Table 1; CHOnfat/hM1 cells, FLIPR, EC20 acetylcholine (3 nM final); read-out: M1 Pot.
In the case of `O=C1c2cc(CN3C[C@@H](F)[C@H](F)C3)c3ccccc3c2CN1C1CCCCC1O` (relative stereo) [Example 29, 5-{[trans-3,4-difluoropyrrolidin-1-yl]methyl}-2-(2-hydroxycyclohexyl)-1,2-dihydro-3H-benzo[e]isoindol-3-one], the EC50 is 240 nM.

As to `CC1c2c(cc(CN3CCC(C#N)(c4ccccn4)CC3)c3ccccc23)C(=O)N1[C@H]1CCCC[C@@H]1O` (single isomer, unassigned) [Example 44], the EC50 was determined as 9.6 nM.

On to `CC1c2c(cc(CN3CCC(C#N)(c4ccccn4)CC3)c3ccccc23)C(=O)N1[C@H]1CCCC[C@@H]1O` (single isomer, unassigned) [Example 45], for which the EC50 was 272 nM.

With `O=C1c2cc(CN3CCCCC3)c3ccccc3c2CN1[C@H]1CCCC[C@@H]1O` [Example 11], the EC50 is 4900 nM.

With `CN1CCN(Cc2cc3c(c4ccccc24)CN([C@H]2CCCC[C@@H]2O)C3=O)CC1` [Example 12, 2-[(1S,2S)-2-hydroxycyclohexyl]-5-[(4-methylpiperazin-1-yl)methyl]-1,2-dihydro-3H-benzo[e]isoindol-3-one], the EC50 came out at 1300 nM.

As for `CN1CCN(Cc2cc3c(c4ccccc24)CN([C@H]2CCCC[C@@H]2O)C3=O)CC1=O` [Example 13, 2-[(1S,2S)-2-hydroxycyclohexyl]-5-[(4-methyl-3-oxopiperazin-1-yl)methyl]-1,2-dihydro-3H-benzo[e]isoindol-3-one], the EC50 stood at 560 nM.

Staying with this test, now noted: Table 2; CHOnfat/hM1 cells, FLIPR, EC20 acetylcholine (3 nM final); read-out: M1 Pot.
Regarding “1-({8-[(1S,2S)-2-hydroxycyclohexyl]-7-oxo-8,9-dihydro-7H-pyrrolo[3,4-h]quinolin-5-yl}methyl)-4-(6-methoxypyridin-2-yl)piperidine-4-carbonitrile [Example 155]”, the EC50 came to 520 nM.

As to “1-({8-[(1S,2S)-2-hydroxycyclohexyl]-7-oxo-8,9-dihydro-7H-pyrrolo[3,4-h]quinolin-5-yl}methyl)-4-(6-methoxypyridin-2-yl)piperidine-4-carbonitrile [Example 156]”, the EC50 amounted to 57 nM.

For the compound `CC1c2c(cc(CN3CCC(F)(C#N)CC3)c3cccnc23)C(=O)N1C1CCCCC1O` (single isomer, unassigned) [Example 118, 4-fluoro-1-{[8-(2-hydroxycyclohexyl)-9-methyl-7-oxo-8,9-dihydro-7H-pyrrolo[3,4-h]quinolin-5-yl]methyl}piperidine-4-carbonitrile], the EC50 was 450 nM.

For the compound `CC1c2c(cc(CN3CCC(F)(C#N)CC3)c3cccnc23)C(=O)N1C1CCCCC1O` (single isomer, unassigned) [Example 119, 4-fluoro-1-{[8-(2-hydroxycyclohexyl)-9-methyl-7-oxo-8,9-dihydro-7H-pyrrolo[3,4-h]quinolin-5-yl]methyl}piperidine-4-carbonitrile], the EC50 was 44 nM.

The test is the same for the next values; noted with them: Table 3; inflection point calculated from the FLIPR values; EC20 acetylcholine (3 nM final); read-out: IP Value.
Consider `N#CC1(c2ccccn2)CCN(Cc2cc3c(c4ccccc24)CN([C@H]2CCCC[C@@H]2O)C3=O)CC1` [Example 1, 1-({2-[(1S,2S)-2-Hydroxycyclohexyl]-3-oxo-2,3-dihydro-1H-benzo[e]isoindol-5-yl}methyl)-4-(pyridine-2-yl)piperidine-4-carbonitrile], for which the EC50 was 10 nM.

As for `O=C1c2cc(CN3CCC(F)(c4ccccn4)CC3)c3ccccc3c2CN1[C@H]1CCCC[C@@H]1O` [Example 2, 5-{[4-Fluoro-4-(pyridine-2-yl)piperidine-1-yl]methyl}-2-[(1S,2S)-2-hydroxycyclohexyl]-1,2-dihydro-3H-benzo[e]isoindol-3-one], the EC50 was 58 nM.

As for `CC1c2c(cc(CN3CCC(C#N)(c4ccccn4)CC3)c3ccccc23)C(=O)N1[C@H]1CCCC[C@@H]1O` (stereo partly drawn) [Example 3, 1-({2-[(1S,2S)-2-Hydroxycyclohexyl]-1-methyl-3-oxo-2,3-dihydro-1H-benzo[e]isoindol-5-yl}methyl)-4-(pyridine-2-yl)piperidine-4-carbonitrile], the EC50 was 19 nM.

For `Cc1cccc(C2(C#N)CCN(Cc3cc4c(c5ccccc35)CN([C@H]3CCCC[C@@H]3O)C4=O)CC2)n1` [Example 4, 1-({2-[(1S,2S)-2-Hydroxycyclohexyl]-3-oxo-2,3-dihydro-1H-benzo[e]isoindol-5-yl}methyl)-4-(6-methylpyridin-2-yl)piperidine-4-carbonitrile], the EC50 was 27 nM.

On to `CCc1cccc(C2(C#N)CCN(Cc3cc4c(c5ccccc35)CN([C@H]3CCCC[C@@H]3O)C4=O)CC2)n1` [Example 5, 4-(6-Ethylpyridin-2-yl)-1-({2-[(1S,2S)-hydroxycyclohexyl]-3-oxo-2,3-dihydro-1H-benzo[e]isoindol-5-yl}methyl)piperidine-4-carbonitrile], for which the EC50 is 55 nM.

Take `COc1cccc(C2(C#N)CCN(Cc3cc4c(c5ccccc35)CN([C@H]3CCCC[C@@H]3O)C4=O)CC2)n1` [Example 6, 1-({2-[(1S,2S)-2-Hydroxycyclohexyl]-3-oxo-2,3-dihydro-1H-benzo[e]isoindol-5-yl}methyl)-4-(6-methoxypyridin-2-yl)piperidine-4-carbonitrile]: the EC50 was 65 nM.

Take `O=C1c2cc(CN3CCC(F)(F)CC3)c3cccnc3c2CN1[C@H]1CCOC[C@@H]1O` [Example 7, 1,5-Anhydro-2,3-dideoxy-3-{5-[(4,4-difluoropiperidin-1-yl)methyl]-7-oxo-7,9-dihydro-8H-pyrrolo[3,4-h]quinolin-8-yl}-L-threo-pentitol]: the EC50 was 147 nM.

On to `O=C1c2cc(CN3CCC(F)(F)CC3)c3cccnc3c2CN1[C@H]1COCC[C@@H]1O` [Example 8, 1,5-Anhydro-2,4-dideoxy-2-{5-[(4,4-difluoropiperidin-1-yl)methyl]-7-oxo-7,9-dihydro-8H-pyrrolo[3,4-h]quinolin-8-yl}-L-threo-pentitol], for which the EC50 was 41 nM.

As to `C=CC1(F)CCN(Cc2cc3c(c4ncccc24)CN([C@H]2CCCC[C@@H]2O)C3=O)CC1` [Example 9, 5-[(4-Ethenyl-4-fluoropiperidin-1-yl)methyl]-8-[(1S,2S)-2-hydroxycyclohexyl]-8,9-dihydro-7H-pyrrolo[3,4-h]quinolin-7-one], the EC50 was 420 nM.
